PMC10258794, “To Fold or Not to Fold: Diastereomeric Optimization of an α-Helical Antimicrobial Peptide” (Journal of Medicinal Chemistry, 2023)
≈ marks a conversion by molar mass, not a printed value. Where two headings read alike, the source gives them in different places.

How the values were obtained:
[1] = 24 h, […] human serum in TRIS buffer pH 7.4, 37 °C
Method: Human serum was diluted in 0.1 M filtered TRIS buffer (pH 7.4) (25%, 1:3, v/v). Selected peptides were diluted in 0.1 M filtered TRIS buffer (pH 7.4) to a concentration of 400 μM, and 0.1 mg/mL 4- hydroxybenzoic acid was added as an internal standard. Aliquots of peptide solution (50 μL) were added to aliquots of serum (50 μL) in sterile Eppendorf tubes, to reach a peptide concentration of 200 μM during the assay. Samples were incubated at 37 °C under gentle stirring (350 rpm). Different samples (triplicates) were quenched at different time points (0/1/6/12/24 h) by precipitating serum proteins through the addition of ZnSO4·7 H2O/ACN (1:1) (0.1 M, 100 μL) and cooling in ice bath for 10 min. Protein precipitates were pelleted under centrifugation, and supernatants were then sampled and analyzed by LC–MS. Experiment controls included two references, one known to be degraded and one known to be undegraded. Peaks corresponding to the internal standard and the undegraded peptides were integrated, with the ratio peptide/standard at t = 0 h as 100%.

[2] = system: P. aeruginosa ZEM9A; assay: microbe, parasite or virus in culture; format: cell-based, Pseudomonas aeruginosa; details: pH 7.4
In short: (§1)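 Compounds were 2-fold serially diluted from a 2 mg/mL stock and plates were incubated statically for 16–20 h at 37 °C. MIC is the lowest concentration preventing visible growth, read after MTT staining.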

[3] = system: A549 cells; assay: Alamar blue cytotoxicity, A549; format: cell-based, human; details: 24 h, mean ± SD, n = 3, read-out: Toxicity on A549 lung cancern cells
Method: The A549 human lung adenocarcinoma cells are derived from a patient and were kindly given to us by Dr. Georgia Konstatinidou (Pharmacology Institute, Bern University). HEK293T cells were obtained from ATCC (CRL-11268). A549 and HEK293 were cultured in an incubator at 37 °C with 5% CO2 in RPMI-1640 (Gibco) and DMEM (Gibco) containing 10% fetal bovine serum (Thermo Fisher), 100 I.U./mL penicillin, and 100 μg/mL streptomycin (Gibco).
The viability of the cells was assessed with an AlamarBlue assay (ThermoFisher). Cells were seeded into 96-well plates, 4000 cells/well (HEK293) and 8000 cells/well (A549), the day before the experiment. Cells were then treated with the increasing concentration of the compound and incubated for 24 h at 37 °C in the presence of 5% CO2. The next day, the medium was removed and replaced by a 10% AlamarBlue solution in full growth medium (DMEM or RPMI-1640). The cells were incubated for 3–5 h at 37 °C with 5% CO2 in a humidified atmosphere. The fluorescence was then measured on a Tecan Infinite M1000 Pro plate reader at λex 560 nm and λem 590 nm. The value was normalized according to the untreated cells.

[4] = system: K. pneumoniae Oxa-48; assay: MIC broth microdilution, K. pneumoniae Oxa-48; format: cell-based, Klebsiella pneumoniae; details: MDR strain; MH broth pH 7.4, 16–20 h, 37 °C
In short: as §1

[5] = system: HEK293 cells; assay: Alamar blue cytotoxicity, HEK293; format: cell-based, human; details: 24 h, mean ± SD, n = 3, read-out: Toxicity on HEK293 cells
In short: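 Viability read by AlamarBlue fluorescence (560/590 nm) after 3–5 h with 10% reagent, relative to untreated controls. Beforehand, cells got rising compound doses for 24 h at 37 °C; seeding was 8000/well for A549 in RPMI-1640 and 4000/well for HEK293 in DMEM.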

[6] = system: Staphylococcus epidermis; assay: MIC broth microdilution, Staphylococcus epidermis; format: cell-based; details: pH 7.4
In short: as §1

[7] = system: S. aureus Newman
[8] = system: S. aureus COL MRSA
In short: as §1

[9] = system: E. coli W3110
In short: as §1

[10] = system: P. aeruginosa PAO1
In short: as §1

[11] = system: A. baumannii ATCC19606
In short: as §1

[12] = system: K. pneumoniae NCTC418
In short: as §1

[13] = system: P. aeruginosa ZEM-1A; assay: microbe, parasite or virus in culture; details: pH 7.4
In short: as §1

[14] = system: P. aeruginosa PA14; assay: microbe, parasite or virus in culture
In short: as §1

[15] = system: PA14 4.18 (pmrB); assay: microbe, parasite or virus in culture; details: supplementary CSV
In short: as §1

[16] = system: Enterobacter cloacae; assay: microbe, parasite or virus in culture; details: pH 7.4
In short: as §1

[17] = system: Burkolderia cenocepacia; assay: microbe, parasite or virus in culture
[18] = system: PA14 4.13 (phoQ); assay: microbe, parasite or virus in culture; details: supplementary CSV
In short: as §1

[19] = system: PA14 2P4 (pmrB); assay: microbe, parasite or virus in culture; details: supplementary CSV
In short: as §1

[20] = system: Stenotrophomonas maltophilia; assay: microbe, parasite or virus in culture; format: cell-based; details: pH 7.4
In short: as §1

[21] = MH broth pH 7.4, 16–20 h, 37 °C
[22] = supplementary CSV, ranges of Table 1 given as one number

Q: For `CC(C)C[C@@H](NC(=O)[C@@H](CC(C)C)NC(=O)[C@@H](CC(C)C)NC(=O)[C@H](CCCCN)NC(=O)[C@@H](CC(C)C)NC(=O)[C@@H](CC(C)C)NC(=O)[C@H](CCCCN)NC(=O)[C@@H](CC(C)C)NC(=O)[C@@H](CC(C)C)NC(=O)[C@H](CCCCN)NC(=O)[C@@H](N)CCCCN)C(N)=O` [dln69, KKllKllKlll], which serum stability [1] is on record?
A: entirely degraded

Q: And the “MIC ZEM9A” value [2]?
A: 8 µg/mL (≈ 6.05 µM)

Q: And the IC50 [3]?
A: 7.2 ± 6.5 µM

Q: And the “MIC K. pneumoniae Oxa-48” value [4]?
A: 8 µg/mL (≈ 6.05 µM)

Q: What about the IC50 [5] of the same compound?
A: 87 ± 2 µM

Q: And the “MIC Staphylococcus epidermis” value [6]?
A: 4 µg/mL (≈ 3.03 µM)

Q: What about the “MIC S. aureus Newman” value [7, 21] of the same compound?
A: 1 µg/mL (≈ 0.757 µM)

Q: And the “MIC S. aureus Newmann” value ([7]; supplementary CSV)?
A: 1 µg/mL (≈ 0.757 µM)

Q: And the “MIC S. aureus COL MRSA” value [8, 21]?
A: 2 µg/mL (≈ 1.51 µM)

Q: What about the “MIC S. aureus COL” value [8, 22] of the same compound?
A: 2 µg/mL (≈ 1.51 µM)

Q: And the “MIC E. coli W3110” value [9, 21]?
A: 0.5 to 1 µg/mL

Q: What about the “MIC E. coli W3110” value [9, 22] of the same compound?
A: 1 µg/mL (≈ 0.757 µM)

Q: What about the “MIC P. aeruginosa PAO1” value [10, 21] of the same compound?
A: 2 to 4 µg/mL

Q: What about the “MIC P. aeruginosa PAO1” value [10, 22] of the same compound?
A: 3 µg/mL (≈ 2.27 µM)

Q: What about the “MIC A. baumannii ATCC19606” value [11, 21] of the same compound?
A: 2 µg/mL (≈ 1.51 µM)

Q: What about the “MIC A. baumannii ATCC19606” value [11, 22] of the same compound?
A: 2 µg/mL (≈ 1.51 µM)

Q: And the “MIC K. pneumoniae NCTC418” value [12, 21]?
A: 4 µg/mL (≈ 3.03 µM)

Q: And the “MIC K. pneumoniae NCTC418” value [12, 22]?
A: 4 µg/mL (≈ 3.03 µM)

Q: What about the “MIC ZEM-1A” value [13] of the same compound?
A: 4 µg/mL (≈ 3.03 µM)

Q: And the “MIC PA14” value [14, 21]?
A: 1 µg/mL (≈ 0.757 µM)

Q: What about the “MIC P. aeruginosa PA14” value ([14]; supplementary CSV) of the same compound?
A: 1 µg/mL (≈ 0.757 µM)

Q: What about the “MIC P. aeruginosa PA14 4.18” value [15] of the same compound?
A: 8 µg/mL (≈ 6.05 µM)

Q: What about the “MIC Enterobacter cloacae” value [16] of the same compound?
A: 4 µg/mL (≈ 3.03 µM)

Q: What about the “MIC Burkolderia cenocepacia” value ([17]; MDR strain, MH broth pH 7.4, 16–20 h, 37 °C) of the same compound?
A: >64 µg/mL

Q: What about the “MIC B. cenocepacia” value ([17]; supplementary CSV) of the same compound?
A: > 64 µg/mL

Q: And the “MIC P. aeruginosa PA14 4.13” value [18]?
A: 2 µg/mL (≈ 1.51 µM)

Q: And the “MIC P. aeruginosaPA14 2P4” value [19]?
A: 16 µg/mL (≈ 12.1 µM)

Q: What about the “MIC Stenotrophomonas maltophilia” value [20] of the same compound?
A: 2 µg/mL (≈ 1.51 µM)
